Drawing on patent US20090197878A1, “SUBSTITUTED BENZO[d][1,3]OXAZIN-2(4H)-ONES AND RELATED DERIVATIVES AND THEIR USES FOR MODULATING THE PROGESTERONE RECEPTOR” (Wyeth, priority 2008, published 2009), this text covers IC50, melting point and inhibition for 15 compounds.

pIC50: −log10 of the molar value.

Series [1] concerns alkaline phosphatase activity in T47D cells. The series can be described thus: Effects of progestins and antiprogestins on alkaline phosphatase activity in T47D cells. The conditions noted are these: Homo sapiens; for pIC50: antagonist mode in the presence of 1 nM progesterone, 24 hours; for inhibition at 3 µM: at 3000 nM; for inhibition at 0.03 µM: at 30 nM. The format is cell-based. As for the experimental part: The purpose of this example is to identify progestins or antiprogestins by determining a compound's effect on alkaline phosphatase activity in T47D cells.
A. Reagents: • Culture medium: Dulbecco's Modified Eagle Medium (DMEM):F12 (1:1) (GIBCO, BRL) supplemented with 5% (v/v) charcoal stripped fetal bovine serum (not heat-inactivated), 100 U/mL penicillin, 100 μg/mL streptomycin, and 2 mM of the GlutaMax® reagent (GIBCO, BRL). • Alkaline phosphatase assay buffer: • I. 0.1M Tris-HCl, pH 9.8, containing 0.2% Triton® X-100 reagent • II. 0.1M Tris-HCl, pH 9.8, containing 4 mM p-nitrophenyl phosphate (Sigma).
Frozen T47D cells are thawed in a 37° C. water bath and diluted to 280,000 cells/mL in culture medium. To each well in a 96-well plate (Falcon, Becton Dickinson Labware), was added 180 μL of diluted cell suspension. Twenty μL of reference or test compounds diluted in the culture medium is then added to each well. When testing for progestin antagonist activity, reference antiprogestins or test compounds are added in the presence of 1 nM progesterone. The cells are incubated at 37° C. in a 5% CO2/humidified atmosphere for 24 hours. For high throughput screening, one concentration of each compound will be tested at 0.3 μg/mL. Based on an average molecular weight of 300 g/mol for the compounds in the library, the concentration is approximately 1 μM. Compounds active in this assay can be tested in dose response assays to determine EC50 and IC50.
C. Alkaline Phosphatase Enzyme Assay: • At the end of treatment, the medium is removed from the plate. Fifty μL of assay buffer I is added to each well. The plates are shaken in a titer plate shaker for 15 minutes. Then 150 μL of assay buffer II is added to each well. Optical density measurements are taken at 5 minute intervals for 30 minutes at a test wavelength of 405 nm.
D. Analysis of Results: Analysis of Dose-Response Data • For reference and test compounds, a dose response curve is generated for dose (X-axis) vs. the rate of enzyme reaction (slope) (Y-axis). Square root-transformed data are used for analysis of variance and nonlinear dose response curve fitting for both agonist and antagonist modes. Huber weighting is used to down-weight the effects of outliers. EC50 or IC50 values are calculated from the retransformed values. JMP® software (SAS Institute, Inc.) is used for both one-way analysis of variance and non-linear dose response analysis in both single dose and dose response studies.
E. Reference Compounds • Progesterone and trimegestone are reference progestins and RU486 is the reference antiprogestin. All reference compounds are run in full dose response curves and the EC50 and IC50 values are calculated.

In series [2] the target is T1, progesterone receptor (PR) (Homo sapiens, UniProt P06401).
T1 construct: in live, intact (whole) cells, using the human breast carcinoma T47D cell line; endogenous in cells; host or cells: T47D human breast carcinoma cells
T1 sequence (P06401 1-933): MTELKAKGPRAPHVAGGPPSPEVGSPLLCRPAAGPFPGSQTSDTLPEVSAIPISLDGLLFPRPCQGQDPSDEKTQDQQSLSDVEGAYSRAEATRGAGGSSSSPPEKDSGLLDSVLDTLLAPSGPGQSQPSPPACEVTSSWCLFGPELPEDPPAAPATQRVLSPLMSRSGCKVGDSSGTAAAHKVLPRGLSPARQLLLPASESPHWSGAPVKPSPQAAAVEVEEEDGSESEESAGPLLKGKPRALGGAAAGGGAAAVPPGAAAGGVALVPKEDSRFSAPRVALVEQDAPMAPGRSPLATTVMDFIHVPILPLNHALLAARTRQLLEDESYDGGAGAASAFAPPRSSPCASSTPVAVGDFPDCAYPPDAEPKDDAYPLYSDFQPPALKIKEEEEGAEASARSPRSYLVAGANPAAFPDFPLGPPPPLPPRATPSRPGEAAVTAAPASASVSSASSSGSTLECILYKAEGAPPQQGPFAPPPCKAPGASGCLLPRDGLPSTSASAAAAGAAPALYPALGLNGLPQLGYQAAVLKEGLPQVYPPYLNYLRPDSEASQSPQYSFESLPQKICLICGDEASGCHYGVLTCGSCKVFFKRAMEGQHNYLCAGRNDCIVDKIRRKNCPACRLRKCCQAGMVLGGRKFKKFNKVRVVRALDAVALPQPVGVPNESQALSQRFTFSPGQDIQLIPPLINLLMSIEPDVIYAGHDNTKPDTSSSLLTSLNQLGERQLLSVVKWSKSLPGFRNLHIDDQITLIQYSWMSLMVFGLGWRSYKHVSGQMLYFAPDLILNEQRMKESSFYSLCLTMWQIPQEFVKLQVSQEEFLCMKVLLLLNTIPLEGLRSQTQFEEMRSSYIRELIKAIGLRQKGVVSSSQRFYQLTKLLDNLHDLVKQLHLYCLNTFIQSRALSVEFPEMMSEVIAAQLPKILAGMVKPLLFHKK
The series can be described thus: Progesterone receptor whole cell competition binding assay using T47D cells. The conditions noted are these: intact T47D cells, 3 nM 3H-progesterone, 3 hours at 37° C. Here is the method:
The purpose of this example is to evaluate the progesterone receptor (PR) binding activity of progestins or antiprogestins in live, intact (whole) cells, using the human breast carcinoma T47D cell line and ^3H-progesterone as the labeled ligand.
A. Reagents: • Culture medium: • (i) 5% RC which is phenol red free Dulbecco's Modified Eagles Medium (DMEM):F12 (1:1) (GIBCO, BRL) supplemented with 5% (v/v) charcoal stripped fetal bovine serum (not heat-inactivated), 100 U/mL penicillin, 100 μg/mL streptomycin, and 2 mM of the GlutaMax™ reagent (GIBCO, BRL) • (ii) 10% RC is 5% RC supplemented with 10% (v/v) FBS • ^3H-Progesterone: Perkin Elmer Life Science, cat# NET-381 (typically around 102 Ci/mmol) • Liquid Scintillation Cocktail: Beckman Coulter, the Ready-Safe™ reagent; cat# 141349 • Tissue Culture Plates: 96 well, clear bottom, white, plates (VWR Part # 29443-150 or Perkin Elmer Part # 3983498)
B. T47D Cell Culture: • T47D cells are maintained in 10% RC media at 37° C. in a 5% CO2/humidified atmosphere and need to be split twice weekly for proper response. Cells are plated in 10% RC the day before binding assay at 50,000 cells per well in the white, clear bottom plates purchased through VWR or Perkin Elmer.
Cells plated the day prior to the assay in white clear bottom plates are used. A master compound plate is set up containing control and test compounds at 20X final desired concentration for the competition binding. A typical dose range of 20X concentrations are (in nM); 200,000; 20,000; 6000; 2000; 600; 200; 20; and 2. Final concentrations are then (in nM); 10,000; 1000; 300; 100; 30; 10; 1; 0.1. Control compounds are typically run 10-fold lower than this and include a 0, or vehicle, control well. A stock of 60 nM ^3H-progesterone (20X) is also prepared at a volume needed of 10 μL per well.
Media on cells are replaced with 180 μL of 5% RC. Ten microliters (10 μL) of 60 nM ^3H-progesterone (for final concentration of 3 nM) is added immediately followed by 10 μL of 20X test or control compounds. Compounds are incubated for 3 hours at 37° C. A time course study found no difference between 2 and 4 hours incubation.
Following incubation, media is carefully removed and cells are washed 3X with 200 μL 5% RC each wash. Fifty microliters of liquid scintillation cocktail is added and the plates are shaken vigorously for a minimum of 15 minutes. Plates are read on the Wallac Microbeta® 1450 plate reader.
D. Analysis of Results: • Square root-transformed data are used for analysis of variance and calculation of IC50. SAS software (SAS Institute, Inc.) is used for all the statistical analysis.
E. Reference Compounds: • Progesterone is used as a reference progestin and RU486 as a reference antiprogestin.

Setting [3] is: in the presence of 1 nM progesterone.

Broadly, the pIC50 is the IC50 on a negative log10 scale, so that one unit is a factor of ten. One may read the melting point as the temperature of the solid-liquid transition. `CCC1(CC)OC(=O)Nc2ccc(/C(=C/C#N)C(C)C)cc21` [Example 27, (2E)-3-(4,4-Diethyl-2-oxo-1,4-dihydro-2H-3,1-benzoxazin-6-yl)-4-methylpent-2-enenitrile]: the melting point is 138 to 140 °C. Besides, the pIC50 in series [1] was 6.68. Further, in series [2], the pIC50 is 5.85.
The like results for `COC(=O)/C=C(\C)c1ccc2c(c1)C(C)(C)OC(=O)N2` [Example 9, Methyl(2E)-3-(4,4-dimethyl-2-oxo-1,4-dihydro-2H-3,1-benzoxazin-6-yl)but-2-enoate] were, in that order, 131 to 132 °C, 7.21 and 7.07.
Taken in the same sequence, the figures for `CCC/C(=C\C#N)c1ccc2c(c1)C(CC)(CC)OC(=O)N2` [Example 25, (2E)-3-(4,4-Diethyl-2-oxo-1,4-dihydro-2H-3,1-benzoxazin-6-yl)hex-2-enenitrile] were 121 to 124 °C, 7.79 and 7.31.
Taken in the same sequence, the figures for `CC1(C)OC(=O)Nc2ccc(/C(=C/C#N)c3ccccc3)cc21` [Example 6, (2E)-3-(4,4-Dimethyl-2-oxo-1,4-dihydro-2H-3,1-benzoxazin-6-yl)-3-phenylacrylonitrile] were 205 to 206 °C, 7.10 and 7.08.
The compound `CC/C(=C\C#N)c1ccc2c(c1)C(CC)(CC)OC(=O)N2` [Example 23, (2E)-3-(4,4-Diethyl-2-oxo-1,4-dihydro-2H-3,1-benzoxazin-6-yl)pent-2-enenitrile] returned a melting point of 135 to 136 °C. Besides, in series [1], the pIC50 is 7.53. In series [2], this compound gave a pIC50 of 7.28.
On to `CCC/C(=C\C#N)c1ccc2c(c1)C1(CCCCC1)OC(=O)N2` [Example 20, (2E)-3-(2-Oxo-1,2-dihydrospiro[3,1-benzoxazine-4,1′-cyclohexan]-6-yl)hex-2-enenitrile], for which the figures for the pIC50 in series [1] and in series [2] were 7.25 and 7.33, respectively.
Taken in the same sequence, the figures for `CC(C)/C(=C\C#N)c1ccc2c(c1)C(C)(C)OC(=O)N2` [Example 30, (2E)-3-(4,4-Dimethyl-2-oxo-1,4-dihydro-2H-3,1-benzoxazin-6-yl)-4-methylpent-2-enenitrile] were 7.07 and 6.11.
Broadly, the inhibition is the drop in the measured response relative to a control, in per cent. With `C/C(=C\C(=O)O)c1ccc2c(c1)C(C)(C)OC(=O)N2` [Example 15, (2E)-3-(4,4-Dimethyl-2-oxo-1,4-dihydro-2H-3,1-benzoxazin-6-yl)but-2-enoic acid], the melting point is 274 to 275 °C (dec.). In addition, the inhibition at 3 µM in series [1] (setting [3]) is 0%.
In turn, `CCC1(CC)OC(=O)Nc2ccc(/C(C)=C/C#N)cc21` [Example 22, (2E)-3-(4,4-Diethyl-2-oxo-1,4-dihydro-2H-3,1-benzoxazin-6-yl)but-2-enenitrile] had a melting point of 159 to 160 °C. Besides, in series [1], the pIC50 is 7.30. In addition, the pIC50 in series [2] was 6.82.
Regarding `CCC/C(=C\C#N)c1ccc2c(c1)C(C)(C)OC(=O)N2` [Example 29, (2E)-3-(4,4-Dimethyl-2-oxo-1,4-dihydro-2H-3,1-benzoxazin-6-yl)hex-2-enenitrile], the inhibition at 0.3 µM in series [1] (at 300 nM, in the presence of 1 nM progesterone) stood at 84%. The negative-log IC50 (pIC50) in series [2] was 6.98.
As for `CC/C(=C\C#N)c1ccc2c(c1)C(C)(C)OC(=O)N2` [Example 28, (2E)-3-(4,4-Dimethyl-2-oxo-1,4-dihydro-2H-3,1-benzoxazin-6-yl)pent-2-enenitrile], the inhibition at 0.03 µM in series [1] (setting [3]) was 70%. The compound further gave a pIC50 in series [2] of 7.05.
As for `CC1(C)OC(=O)Nc2ccc(/C=C/C(=O)O)cc21` [Example 14, (2E)-3-(4,4-Dimethyl-2-oxo-1,4-dihydro-2H-3,1-benzoxazin-6-yl)acrylic acid], the melting point was 260 to 261 °C (dec.). In addition, in series [1] (setting [3]), the inhibition at 3 µM is 0%.
`CC/C(=C\C#N)c1ccc2c(c1)C1(CCCCC1)OC(=O)N2` [Example 19, (2E)-3-(2-Oxo-1,2-dihydrospiro[3,1-benzoxazine-4,1′-cyclohexan]-6-yl)pent-2-enenitrile] had a melting point of 173 to 174 °C. Further, the inhibition at 0.03 µM in series [1] (setting [3]) came to 60%.
Take `C/C(=C/C#N)c1ccc2c(c1)C(C)(C)OC(=O)N2` [Example 12, (2Z)-3-(4,4-Dimethyl-2-oxo-1,4-dihydro-2H-3,1-benzoxazin-6-yl)but-2-enenitrile]: the melting point lay in the range of 213 to 215 °C. Further, in series [1] (setting [3]), the inhibition at 3 µM was 25%. In series [2], the pIC50 is 5.86.
Take `C/C(=C\C(N)=O)c1ccc2c(c1)C(C)(C)OC(=O)N2` [Example 5, (2E)-3-(4,4-Dimethyl-2-oxo-1,4-dihydro-2H-3,1-benzoxazin-6-yl)but-2-enamide]: the melting point is 198 to 200 °C. In series [1], the pIC50 is 4.30.
